Assay results: patent US8093226B2, “Cytostatic 7-deazapurine nucleosides” (Institute of Organic Chemistry and Biochemistry of the …, priority 2008, dated 2012)

Experiments:
Format in all cases: cell-based
PC3 = test: Test A: Cytostatic Cell Culture Assay (GI50), PC3; conditions: Homo sapiens, PC-3, 120 h; PC3 cells, 5 days, SRB; read-out: G150 Prostate PC3
Text: (§1) Test A: Cytostatic Cell Culture Assay (GI50)
(§2) This assay is based on quantification of cell counts by a calorimetric detection of the cell associated proteins. The assay relies on the ability of sulforhodamine B (SRB) to bind to protein components of cells that have been fixed to tissue-culture plates by trichloroacetic acid (TCA). SRB is a bright-pink aminoxanthene dye with two sulfonic groups that bind to basic amino-acid residues under mild acidic conditions, and dissociate under basic conditions. As the binding of SRB is stoichiometric, the amount of dye extracted from stained cells is directly proportional to the cell mass.
(§3) Cell lines: All cell lines are obtained from ATCC (Manassas, Va.). Cultivation media containing Glutanax, and trypsin are purchased from Invitrogen (Carlsbad, Calif.). Doxorubicin, Clofarabine, TCA and SRB are from Sigma-Aldrich (St. Louis, Mo.). Gemcitabine is obtained from Moravek Biochemicals (Brea, Calif.)
(§4) • 1. Trypsinize the sub-confluent cells, count them, and adjust the cell concentrations according to the cell counts listed in Table 1. • 2. Distribute the cells into the 96-well plates in 150 μL of media. Incubate the plates overnight in humidified CO2 incubator at 37° C. • 3. Fix one plate of each cell line with TCA. Discard the cultivation media from the plates by flicking them gently and add 100 μL cold 10% (vol/vol) TCA to each well. Incubate the plates at 4 degree refrigerator for 1 hour. Discard TCA from the plates by flicking them gently. Rinse plates four times in a washing basin containing tap water. Store the plates at room temperature. These plates represent cell counts on day zero. • 4. Prepare a set of medium solutions containing various concentrations of tested compounds by making 5-fold serial dilutions in 96-well plate. Add 50 μL of the diluted compounds per well. Include controls with untreated cells and cells treated with doxorubicin, clofarabine and gemcitabine. • 5. Incubate the plates for 5 days at 37° C. • 6. Fix the plates with TCA. Discard the cultivation media from the plates by flicking them gently and add 100 μL cold 10% (vol/vol) TCA to each well. Incubate the plates at 4 degree refrigerator for 1 hour. Discard TCA from the plates by flicking them gently. Rinse plates four times in a washing basin containing tap water. • 7. Remove excess water by tapping the plates face down, gently on a paper towel. Allow the plates to air-dry at room temperature. • 8. Add 100 μL of 0.057% SRB solution in 1% (vol/vol) acetic acid to each well of the plates fixed with TCA on day zero and five. Leave at room temperature for 30 minutes. • 9. Flick the plates gently to discard SRB. Rinse the plates four times with 1% (vol/vol) Acetic Acid. • 10. Store the plates at 370 incubator to facilitate faster drying. • 11. Once the plates are completely dry, add 200 μL of 10 mM Tris base solution (pH 10.5) to each well. Leave at room temperature for 30 minutes for SRB to solubilize. • 12. Measure the OD at 500 nm in a microplate reader. • 13. Calculate the percentage of cell-growth inhibition using the next formula: % of control cell growth=100×(ODsample−mean ODday0)/(ODneg control−mean ODday0)
(§5) For GI50 determination, plot a dose-response curves between the compound concentration and percent of growth inhibition. GI50 values can be derived by fitting dose-response curves using sigmoidal dose response equation.

HCT15 = test: Test A: Cytostatic Cell Culture Assay (GI50), HCT15; conditions: Homo sapiens, HCT-15, 120 h; HCT15 cells, 5 days, SRB; read-out: G150 Colon HCT15
Text: as §1, §2, §3, §4, §5

Du145 = test: Test A: Cytostatic Cell Culture Assay (GI50), Du145; conditions: Homo sapiens, DU-145, 120 h; Du145 cells, 5 days, SRB; read-out: G150 Prostate Du145
Text: as §1, §2, §3, §4, §5

[1] = tested on: Human T-lymphoid cell line CCRF-CEM; test: Cell cycle distribution in human T-lymphoid cells (propidium iodide, flow cytometry); conditions: 72 hours; for G1 % / G2/M % / S %: 0.3 μM; for Relative change in cell cycle phase compared to untreated control, G1 / Relative change in cell cycle phase compared to untreated control, G2/M / Relative change in cell cycle phase compared to untreated control, S: concentration corresponding to CC50, untreated control = 1
Experimental: Effects of the Compounds on Cell Cycle Distribution in Human T-Lymphoid Cells
Human T-lymphoid cell line CCRF-CEM is treated with tested compounds for 72 hours at the concentration corresponding to the CC50 value of each compound. At the end of incubation, cells are harvested by centrifugation, washed, and fixed in ethanol. Fixed cells are stained with propidium iodide in a buffer containing RNaseA and the cell cycle distribution analysis is performed by flow cytometry using BD FACSAria instrument. Data are processed using BD FACSDiva software v4.1 and presented as a percentage of analyzed cell population in Phase G1, S, and G2/M. Cell cycle distribution is determined in parallel for untreated and treated cells and relative change for each cell cycle phase is calculated.
The data represent changes in the frequency of each cell cycle phase in treated cells relative to untreated control (the relative fraction of each analyzed cell cycle phase in untreated control has the value of 1).
Primary data are shown in Table 3, with values representing the percentage distribution of each cell cycle phase in the total cell population.

A549 = test: Test A: Cytostatic Cell Culture Assay (GI50), A549; conditions: Homo sapiens, 120 h; A549 cells, 5 days, SRB; read-out: G150 Lung A549
Text: as §1, §2, §3, §4, §5

NCIH23 = test: Test A: Cytostatic Cell Culture Assay (GI50), NCIH23; conditions: Homo sapiens, NCI-H23, 120 h; NCIH23 cells, 5 days, SRB; read-out: G150 Lung NCIH23
Text: as §1, §2, §3, §4, §5

Hs578 = test: Test A: Cytostatic Cell Culture Assay (GI50), Hs578; conditions: 120 h; Hs578 cells, 5 days, SRB; read-out: G150 Breast Hs578
Text: as §1, §2, §3, §4, §5

HCT116 = test: Test A: Cytostatic Cell Culture Assay (GI50), HCT116; conditions: Homo sapiens, HCT-116, 120 h; HCT116 cells, 5 days, SRB; read-out: G150 Colon HCT116
Text: as §1, §2, §3, §4, §5

SMILES | IC50 (PC3) | IC50 (HCT15) | IC50 (Du145) | G1 % ([1]; replicate 1) | G2/M % ([1]; replicate 1) | S % ([1]; replicate 1) | G1 % ([1]; replicate 2) | G2/M % ([1]; replicate 2) | S % ([1]; replicate 2) | Relative change in cell cycle phase compared to untreated control, G1 [1] | Relative change in cell cycle phase compared to untreated control, G2/M [1] | Relative change in cell cycle phase compared to untreated control, S [1] | IC50 (A549) | IC50 (NCIH23) | IC50 (Hs578) | IC50 (HCT116)
OC[C@H]1O[C@@H](n2ccc3c(-c4cccs4)ncnc32)[C@H](O)[C@@H]1O [Example 6, 7-(β-D-Ribofuranosyl)-4-(thiophen-2-yl)-7H-pyrrolo[2,3-d]pyrimidine] | 67 nM | 78 nM | 9 nM | 30.82% | 14.53% | 54.65% | 14.66% | 22.05% | 63.29% | 0.52 | 1.54 | 1.34 | 45 nM | 4100 nM | 101 nM | 49 nM
OC[C@H]1O[C@@H](n2ccc3c(-c4ccco4)ncnc32)[C@H](O)[C@@H]1O [Example 5, 4-(Furan-2-yl)-7-(β-D-ribofuranosyl)-7H-pyrrolo[2,3-d]pyrimidine] | 91 nM | 20 nM | 7 nM | 26.14% | 11.89% | 61.98% | 23.61% | 16.41% | 59.99% | 0.57 | 1.19 | 1.38 | 88 nM | 4200 nM | 49 nM | 78 nM
OC[C@H]1O[C@@H](n2cc(F)c3c(-c4cccs4)ncnc32)[C@H](O)[C@@H]1O [Example 21] | 83 nM | 18 nM | 9 nM | 30.83% | 22.80% | 46.37% | 32.73% | 23.53% | 43.74% | 0.74 | 1.38 | 1.12 | 61 nM | 4700 nM | 132 nM | 9 nM
OC[C@H]1O[C@@H](n2cc(Cl)c3c(-c4ccccc4)ncnc32)[C@H](O)[C@@H]1O [Example 28, 5-Chloro-4-phenyl-7-(β-D-ribofuranosyl)-7H-pyrrolo[2,3-d]pyrimidine] | 263 nM | 290 nM | 138 nM | – | – | – | – | – | – | – | – | – | 2470 nM | 5020 nM | 13200 nM | 1420 nM
OC[C@H]1O[C@@H](n2ccc3c(-c4ccoc4)ncnc32)[C@H](O)[C@@H]1O [Example 12, 4-(Furan-3-yl)-7-(β-D-ribofuranosyl)-7H-pyrrolo[2,3-d]pyrimidine] | 150 nM | 86 nM | 36 nM | – | – | – | – | – | – | – | – | – | 73 nM | 697 nM | 264 nM | 92 nM
OC[C@H]1O[C@@H](n2cc(F)c3c(-c4ccoc4)ncnc32)[C@H](O)[C@@H]1O [Example 23, 5-Fluoro-4-(furan-3-yl)-7-(β-D-ribofuranosyl)-7H-pyrrolo[2,3-d]pyrimidine] | 87 nM | 39 nM | 5 nM | – | – | – | – | – | – | – | – | – | 60 nM | 4640 nM | 177 nM | 18 nM
